Experimental data from patent US10252997B2, “Monocyclic compound” (Takeda Pharmaceutical Company Limited, priority 2015, dated 2019).

Key:
[1] = molecular target: T1, Human ACC1 (Homo sapiens, UniProt Q13085); assay: Measurement of ACC1 inhibitory activity (Malonyl-CoA produced, RapidFire-mass spectrometry); assay type: biochemical; conditions: 10 μM of the test compound; read-out: ACC1 inhibitory rate (%) at 10 μM
T1 construct: His6 (from vector pFAST-BacHTc; purified on Ni-NTA) (N); made in house; host or cells: SF-9 insect cells, recombinant baculovirus BAC-ACC1
Experimental: (1) Cloning of Human ACC1 Gene and Preparation of Recombinant Baculovirus
Human ACC1 gene was cloned by PCR using a human liver cDNA library (Clontech) as a template and Primer 1 and Primer 2 shown below. Primer 1 and Primer 2 were prepared by adding SalI, NotI restriction enzyme recognition sequences based on the information of the base sequence of human ACC1 gene (Genbank Accession U19822).
PCR was performed using Pyrobest DNA polymerase (TAKARA BIO INC.). The obtained PCR product was cloned to pT7 Blue vector (Novagen) and after confirmation of the base sequence, digested with restriction enzymes SalI and […]. The obtained DNA fragment was inserted into pFAST-BacHTc (Invitrogen) digested with restriction enzymes SalI and […] to give expression plasmid ACC1/pFAST-BacHTc.
Using the expression plasmid ACC1/pFAST-BacHTc and BAC-TO-BAC Baculovirus Expression System (Invitrogen), virus stock BAC-ACC1 of recombinant Baculovirus was prepared.
(2) Preparation of ACC1 Protein
SF-9 cells (Invitrogen) were inoculated to a medium (10 L) for insect cells (Sf-900IISFM medium (Invitrogen) containing 5% fetal bovine serum (Trace), 50 mg/L Gentamicin (Wako Pure Chemical Industries, Ltd.) and 0.1% Pluronic F-68 (Invitrogen)) at 1.0×10^6 cells/mL, and cultured with shaking in Wave Bioreactor (GE Healthcare) at 27° C., 20 rpm, rocking angle 100, oxygen concentration 30%.
On day 2 of the culture, recombinant Baculovirus BAC-ACC1 was added, and the cells were cultured for 3 days. The culture medium was centrifuged at 4000×g for 10 min to give virus-infected cells. The cells were washed with phosphate buffered saline (Invitrogen) and centrifuged under the same conditions. The obtained cells were cryopreserved at −80° C.
The cryopreserved cells were thawed in ice, and suspended in 800 mL of 25 mM HEPES buffer (pH 7.5) containing 10% Glycerol, 0.3 M NaCl, 1 mM EDTA, 25 mM Sodium β-Glycerophosphate and 1 mM Sodium Orthovanadate, and supplemented with Complete Protease Inhibitor (Roche). The obtained suspension was homogenized two times in a polytron homogenizer (Kinematica) at 20,000 rpm for 20 sec. The obtained cell disruption solution was clarified by centrifugation at 186,000×g for 60 min, and the supernatant was passed through Ni-NTA Superflow Cartridges (5 mL) (QUIAGEN). Furthermore, it was washed with 25 mM HEPES buffer (pH 7.5) containing 20 mM Imidazole and 0.3 M NaCl, and eluted with 25 mM HEPES buffer (pH 7.5) containing 250 mM Imidazol and 0.3 M NaCl. The eluate was concentrated by Amicon Ultra-15 (Nihon Millipore K.K.) having a fraction molecular weight of 50K. The obtained concentrate was subjected to gel filtration with 50 mM HEPES buffer (pH 7.5) containing 10 mM MgCl2, 2 mM dithiothreitol, 10 mM tripotassium citrate and 0.3 M NaCl by using HiLoad 26/60 Superdex200 prep grade gel filtration column (GE Healthcare) to give ACC1. The obtained ACC1 was cryopreserved at −80° C.
(3) Measurement of ACC1 Inhibitory Activity
ACC1 obtained in the above-mentioned (2) was diluted with an enzyme reaction buffer (50 mM HEPES (pH 7.5), 10 mM MgCl2, 10 mM Tripottasium Citrate, 2 mM Dithiothreitol, 0.001% Fatty acid free BSA) to a concentration of 0.2 μg/ml, and the mixture was added to each well of a 384 well assay plate by 10 μl. A test compound dissolved in dimethyl sulfoxide (DMSO) was diluted with an enzyme reaction buffer, and the resulting solution (5 μl) was added to each well. The mixture was incubated at room temperature for 60 min. Then, a substrate solution (50 mM KHCO3, 200 μM ATP, 200 μM Acetyl-CoA, 5 μl) was added to each well, and the mixture was reacted at room temperature for 30 min. The reaction was quenched by adding a reaction quenching liquid (1.3% formic acid, 0.2 μM Malonyl-^13C3-CoA) by 60 μL each to the obtained reaction mixtures (test compound addition group).
In addition, a reaction was performed in the same manner as above and without adding the test compound (test compound non-addition group). […]

[2] = system: HCT116 cells; assay: Growth inhibitory activity on HCT116 cell (CellTiter-Glo); assay type: cell-based; conditions: Homo sapiens, HCT-116, 72 h; test compound 1 μM, 3 days; read-out: HCT116 cell proliferation inhibitory rate (%) at 1 μM
Experimental: The growth inhibitory activity of the compound on HCT116 cell was evaluated by the following method.
HCT116 cells were seeded in a 384 well blackplate at 900 cells/[…]/well, and maintained in an assay medium (RPMI medium (Wako) containing 2% fetal bovine serum, 50 Unit/mL penicillin and […] streptomycin (Invitrogen)). The next day, a test compound dissolved in dimethyl sulfoxide (DMSO) was diluted with the assay medium, and the obtained compound solution was added by […] to each well of a plate containing HCT116 cells, and incubated at 37° C., 5% CO2 (test compound addition group).
A similar reaction was performed without adding a test compound (test compound non-addition group).
Furthermore, a similar reaction was performed under the conditions without adding HCT116 cell and a test compound (control group).
After 3 days, […] of a CellTiter-Glo reagent (Promega KK) was added to the well, and the mixture was stirred for 10 min. Thereafter, the luminescence value of each well was measured by the EnVision™ multilabel counter (Perkin Elmer Inc.).
The HCT116 cell proliferation inhibitory rate (%) of the test compound was determined by the following calculation formula. (1−(luminescence of test compound addition group−luminescence of control group)÷(luminescence of test compound non-addition group−luminescence of control group))×100
The HCT116 cell proliferation inhibitory rates (%) of the test compound (1 μM) are shown below.

## C[C@@H](COc1cnc(-c2ccc(Oc3cccc(OCC4CC4)c3)cc2)o1)NC(N)=O [Example 82, 1-((2S)-1-((2-(4-(3-(cyclopropylmethoxy)phenoxy)phenyl)-1,3-oxazol-5-yl)oxy)propan-2-yl)urea]
[1]
  inhibition at 10 µM: 96%
[2]
  inhibition at 1 µM: 33%
